Test system: HEK293 cells
Test: Preliminary screening as mRNA vectors, EGFP mRNA transfection of HEK293 cells
Format: cell-based
Settings: EGFP mRNA 50 ng per well, 96-well plates; percentage of GFP fluorescent cells relative to total number of cells (Hoechst)
Summary of the method: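 HEK293 cells in DMEM plus 10% FBS transfected in 96-well format with 50 ng EGFP mRNA per well; Lipofectamine2000 served as positive control. Read-out is the percentage of GFP-fluorescent cells among total cells, counted by Hoechst nuclear stain.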

Row | SMILES | Absolute mRNA transfection efficiency in HEK293 cells
1 | CCCCCCCCCCCNc1nc(NCCCN2CCN(C)CC2)nc(SCCCCCCCC)n1 [Compound D9S8N11] | 81.7%
2 | CCCCCCCCCCCCCCCCNc1nc(NCCCN2CCN(C)CC2)nc(SCCCCCCCCCCCCCCCC)n1 [Compound D9S16N16] | 0.1%
3 | CCCCCCCCCCCCCCCCCCSc1nc(NCCN2CCCC2)nc(SCCCCCCC)n1 [Compound D3S7S18] | 7.9%
4 | CCCCCCNc1nc(NCCN2CCCC2)nc(SCCCCCC)n1 [Compound D3S6N6] | 0.1%
5 | CCCCCCCCCCCSc1nc(NCCCCCCCC)nc(NCCCN(C)C)n1 [Compound D6S11N8] | 16.8%
6 | CCCCCCCNc1nc(NCCCN2CCOCC2)nc(SCCCCCCC)n1 [Compound D8S7N7] | 1.4%
7 | CCCCCCCCCCCCCCCCCCSc1nc(NCCCCCCC)nc(NCCN(CC)CC)n1 [Compound D7S18N7] | 6.5%
8 | CCCCCCCCCCCCCCCCSc1nc(NCCCCCCC)nc(NCCN2CCCCC2)n1 [Compound D4S16N7] | 0.8%
9 | CCCCCCCCCCCNc1nc(NCC2CCN(C)CC2)nc(SCCCCCC)n1 [Compound D10S6N11] | 4.0%
10 | CCCCCCCCCCCCCCCSc1nc(NCCCCCCC)nc(NCCCN2CCN(C)CC2)n1 [Compound D9S15N7] | 15.9%
11 | CCCCCCCCCCCCCCCCCCSc1nc(NCCCCCCCCCCCC)nc(NCCN2CCCCC2)n1 [Compound D4S18N12] | 0.7%
12 | CCCCCCCCCCCCCCCCCCSc1nc(NCCCCCCCCCCCCCCC)nc(NCCN2CCCC2)n1 [Compound D3S18N15] | 0.1%
13 | CCCCCCCCCCSc1nc(NCCCCCCC)nc(NCCN(CC)CC)n1 [Compound D7S10N7] | 1.2%
14 | CCCCCCCCCCCCCCCCNc1nc(NCCN2CCN(C)CC2)nc(SCCCCCCC)n1 [Compound D5S7N16] | 32.2%
15 | CCCCCCCCSc1nc(NCCCCCCC)nc(NCCCN(C)C)n1 [Compound D6S8N7] | 4.3%
16 | CCCCCCCCCCCCSc1nc(NCCCCCCCC)nc(NCCCN(C)C)n1 [Compound D6S12N8] | 30.5%
17 | CCCCCCCCCCCCCCCCNc1nc(NCCCN(C)C)nc(SCCCCCCCCCCCCCCC)n1 [Compound D6S15N16] | 0.2%
18 | CCCCCCCCCCCCCCCNc1nc(NCCN2CCCC2)nc(SCCCCCCCCCCC)n1 [Compound D3S11N15] | 31.3%
19 | CCCCCCCCCCCCCCCCCCNc1nc(NCCCN2CCN(C)CC2)nc(SCCCCCCCC)n1 [Compound D9S8N18] | 29.4%
20 | CCCCCCCCCCCCNc1nc(NCCN2CCCCC2)nc(SCCCCCCCCCC)n1 [Compound D4S10N12] | 1.0%
21 | CCCCCCCCCCCSc1nc(NCCCN2CCOCC2)nc(SCCCCCC)n1 [Compound D8S6S11] | 1.5%
22 | CCCCCCCCCCCCNc1nc(NCCCN(C)C)nc(SCCCCCCCCC)n1 [Compound D6S9N12] | 39.3%
23 | CCCCCCCCCCSc1nc(NCCN(C)C)nc(SCCCCCCC)n1 [Compound D1S7S10] | 5.6%

Row | SMILES | Absolute mRNA transfection efficiency in HEK293 cells
24 | CCCCCCCCCCCSc1nc(NCCCCCC)nc(NCCCN2CCN(C)CC2)n1 [Compound D9S11N6] | 12.2%
25 | CCCCCCCCCCCCCCCCNc1nc(NCCN2CCOCC2)nc(SCCCCCCCC)n1 [Compound D2S8N16] | 3.4%
26 | CCCCCCCCSc1nc(NCCCCCCC)nc(NCCN(C)C)n1 [Compound D1S8N7] | 2.0%
27 | CCCCCCCCCCSc1nc(NCCCN2CCN(C)CC2)nc(SCCCCCCC)n1 [Compound D9S7S10] | 47.1%
28 | CCCCCCCCCCCCCCCCNc1nc(NCCCN2CCOCC2)nc(SCCCCCCCCCCCCCC)n1 [Compound D8S14N16] | 0.4%
29 | CCCCCCNc1nc(NCCCN2CCOCC2)nc(SCCCCCC)n1 [Compound D8S6N6] | 0.0%
30 | CCCCCCCCCCCCCCCCSc1nc(NCCCCCCCC)nc(NCCN2CCN(C)CC2)n1 [Compound D5S16N8] | 72.2%
31 | CCCCCCCCCCCCCCCCNc1nc(NCCCN(C)C)nc(SCCCCCC)n1 [Compound D6S6N16] | 40.4%
32 | CCCCCCCCCCCCCCCNc1nc(NCC2CCN(C)CC2)nc(SCCCCCCCC)n1 [Compound D10S8N15] | 53.3%
33 | CCCCCCCCCCCNc1nc(NCCN(CC)CC)nc(SCCCCCC)n1 [Compound D7S6N11] | 3.8%
34 | CCCCCCCCCCCCCCCSc1nc(NCCCCCCCCCCCC)nc(NCCCN2CCN(C)CC2)n1 [Compound D9S15N12] | 4.4%
35 | CCCCCCCCCCCCNc1nc(NCCN(C)C)nc(SCCCCCCC)n1 [Compound D1S7N12] | 5.4%
36 | CCCCCCCCCCCCCCCNc1nc(NCCN(CC)CC)nc(SCCCCCCCCCCCC)n1 [Compound D7S12N15] | 1.3%
37 | CCCCCCCCCCCCSc1nc(NCCN(CC)CC)nc(SCCCCCC)n1 [Compound D7S6S12] | 8.1%
38 | CCCCCCCCCCCCCCCCSc1nc(NCCCCCCCCCCC)nc(NCCN2CCCC2)n1 [Compound D3S16N11] | 73.8%
39 | CCCCCCCCCSc1nc(NCCCCCC)nc(NCCN2CCCC2)n1 [Compound D3S9N6] | 0.2%
40 | CCCCCCCCSc1nc(NCCN2CCCCC2)nc(SCCCCCCC)n1 [Compound D4S7S8] | 5.9%
41 | CCCCCCCCCCCCCCCCCCSc1nc(NCCCN2CCN(C)CC2)nc(SCCCCCCC)n1 [Compound D9S7S18] | 34.3%
42 | CCCCCCCCCCCCN(CCCCCCCCCCCC)c1nc(NCCN2CCCC2)nc(SCCCCCCCCCC)n1 [D3S10^2N12] | 0.1%
43 | CCCCCCCCCCCCN(CCCCCCCCCCCC)c1nc(NCC2CCN(C)CC2)nc(SCCCCCCC)n1 [D10S7^2N12] | 1.4%
44 | CCCCCCCCCCCCNc1nc(NCCN2CCN(C)CC2)nc(SCCCCCCCCCCC)n1 [Compound D5S11N12] | 22.8%
45 | CCCCCCCCCCCCCCCSc1nc(NCCCCCCC)nc(NCC2CCN(C)CC2)n1 [Compound D10S15N7] | 22.1%
46 | CCCCCCCCCCCCSc1nc(NCCN2CCCCC2)nc(N(CCCCCCCCCCCC)CCCCCCCCCCCC)n1 [D4S12^2N12] | 0.5%

Row | SMILES | Absolute mRNA transfection efficiency in HEK293 cells
47 | CCCCCCCCCCCCCNc1nc(NCCN2CCCC2)nc(SCCCCCCC)n1 [Compound D3S7N13] | 19.1%
48 | CCCCCCCCCCCNc1nc(NCCCN(C)C)nc(SCCCCCCCC)n1 [Compound D6S8N11] | 32.3%
49 | CCCCCCCCCCCSc1nc(NCCCCCCCCC)nc(NCCCN2CCN(C)CC2)n1 [Compound D9S11N9] | 60.3%
50 | CCCCCCCCCCCCCCCCCCNc1nc(NCCCN2CCOCC2)nc(SCCCCCCCC)n1 [Compound D8S8N18] | 1.2%
51 | CCCCCCCCCCCCCCCCSc1nc(NCCCCCCCCCCCCCCC)nc(NCCN2CCN(C)CC2)n1 [Compound D5S16N15] | 0.1%
52 | CCCCCCCCCCCCCCCCNc1nc(NCCCN2CCN(C)CC2)nc(SCCCCCCCC)n1 [Compound D9S8N16] | 21.2%
53 | CCCCCCCCCCCCCCCCNc1nc(NCCN2CCCCC2)nc(SCCCCCCCCCCCCCC)n1 [Compound D4S14N16] | 1.4%
54 | CCCCCCCCCCSc1nc(NCCN2CCOCC2)nc(SCCCCCC)n1 [Compound D2S6S10] | 4.6%
55 | CCCCCCCCCCCCCCCSc1nc(NCCCCCCCCCCCC)nc(NCCN(CC)CC)n1 [Compound D7S15N12] | 4.7%
56 | CCCCCCCCCCCCCCCSc1nc(NCCCCCCCCCCCCC)nc(NCCN2CCCC2)n1 [Compound D3S15N13] | 3.0%
57 | CCCCCCCCCCCNc1nc(NCC2CCN(C)CC2)nc(SCCCCCCC)n1 [Compound D10S7N11] | 25.3%
58 | CCCCCCCNc1nc(NCCN2CCN(C)CC2)nc(SCCCCCCC)n1 [Compound D5S7N7] | 1.0%
59 | CCCCCCCCCCCCCCCSc1nc(NCCCN2CCN(C)CC2)nc(SCCCCCCC)n1 [Compound D9S7S15] | 9.6%
60 | CCCCCCCCCCCCNc1nc(NCC2CCN(C)CC2)nc(SCCCCCCCCCCC)n1 [Compound D10S11N12] | 24.7%
61 | CCCCCCCCCCCCCCCSc1nc(NCCCCCCC)nc(NCCN2CCCCC2)n1 [Compound D4S15N7] | 1.2%
62 | CCCCCCCCCCCSc1nc(NCCCCCCCCC)nc(NCCN2CCOCC2)n1 [Compound D2S11N9] | 2.5%
63 | CCCCCCCCCCCCCCCCSc1nc(NCCCCCC)nc(NCC2CCN(C)CC2)n1 [Compound D10S16N6] | 86.9%
64 | CCCCCCCCCCCCCCCCCCNc1nc(NCCCN(C)C)nc(SCCCCCCCC)n1 [Compound D6S8N18] | 40.4%
65 | CCCCCCCCCCCCCCCNc1nc(NCCCN(C)C)nc(SCCCCCCCCC)n1 [Compound D6S9N15] | 36.5%
66 | CCCCCCCCCCCCCCCSc1nc(NCCCN2CCN(C)CC2)nc(SCCCCCC)n1 [Compound D9S6S15] | 6.5%
67 | CCCCCCCCCCCCCCSc1nc(NCCCCCCC)nc(NCCN2CCN(C)CC2)n1 [Compound D5S14N7] | 59.0%
